In patent US11324742B2, “Treatment of demyelinating diseases” (Victoria Link Ltd., priority 2018, dated 2022):
Like-named read-outs stand apart in the source and are kept apart here.

Experiments:
[1] = test system: Substance P induced scratch; experiment: Substance P induced scratch mouse model; settings: SC or IV administration, top two rows of the table only, read-out: average in vivo efficacy ED50 for itch model
[2] = test system: infiltrating immune cells (CD45high) in brain of EAE mice; experiment: EAE model, immune cell infiltration into the brain by flow cytometry; assay type: in vivo, female C57BL/6 mice
[3] = test system: myelin in spinal cord of EAE mice; experiment: EAE model, TEM of spinal cord sections; assay type: in vivo, female C57BL/6 mice; settings: 0.03 mg/kg daily i.p. from day 17; day 45
[4] = test system: cuprizone demyelination disease model of MS; experiment: Cuprizone model of demyelination, weight change; assay type: in vivo, female C57BL/6 mice
[5] = test system: cuprizone model of demyelination; experiment: Cuprizone model, rotarod assay (coordination); assay type: in vivo, female C57BL/6 mice; settings: 0.1 mg/kg daily i.p.; week 9 relative to week 5
[6] = test system: myelin in corpus callosum of cuprizone-treated mice; experiment: Cuprizone model, TEM of corpus callosum (g-ratio, myelinated axons, myelin area); assay type: in vivo, female C57BL/6 mice
[7] = test system: myelin in spinal cord of EAE mice; experiment: EAE model, luxol fast blue staining of spinal cord (demyelination); assay type: in vivo, female C57BL/6 mice
[8] = test system: lymphocyte populations in the spleen of EAE mice; experiment: EAE model, splenocytes by flow cytometry; assay type: in vivo, female C57BL/6 mice; settings: 0.01 mg/kg daily i.p. from onset
[9] = test system: leucocyte infiltration into the spinal cord of EAE mice; experiment: EAE model, H&E staining of spinal cord (leucocyte infiltration); assay type: in vivo, female C57BL/6 mice; settings: 0.01 mg/kg daily i.p. from onset; chronic phase
[10] = test system: activated GFAP+ astrocytes in the spinal cord of EAE mice; experiment: EAE model, GFAP immunohistochemistry of spinal cord (activated astrocytes); assay type: in vivo, female C57BL/6 mice; settings: 0.01 mg/kg daily i.p. from day 17; day 45
[11] = test system: cuprizone demyelination disease model of MS; experiment: Cuprizone model, von Frey mechanical withdrawal threshold; assay type: in vivo, female C57BL/6 mice; settings: 0.1 mg/kg/i.p. daily
[12] = test system: Substance P induced scratch; settings: cited from earlier work
Morphine induced scratch = settings: SC, EMA/CHMP/138212/2014; cited from earlier work
[13] = test system: Histamine induced scratch; settings: PO, Togashi et al. (2002); cited from earlier work
itch = settings: human; cited from earlier work
[14] = cited from earlier work
[15] = 0.1 mg/kg/i.p. daily from day 28, day 70

For CN(C(=O)/C=C/c1ccoc1)[C@@H]1CC[C@@]2(O)[C@H]3Cc4ccc(O)c5c4[C@@]2(CCN3CC2CC2)[C@H]1O5 [nalfurafine, (E)-N-[(4R,4aS,7R,7aR,12bS)-3-(cyclopropylmethyl)-4a,9-dihydroxy-1,2,4,5,6,7,7a,13-octahydro-4,12-methanobenzofuro[3,2-e]isoquinoline-7-yl]-3-(furan-3-yl)-N-methylprop-2-enamide], the ED50 [1] was roughly 2.71 µg/kg, the “number of infiltrating immune cells in brain (ratio to microglia)” value ([2]; 0.03 mg/kg daily i.p. from day 17, day 45) was “significantly reduced” and the “number of infiltrating immune cells in brain (ratio to microglia)” value ([2]; 0.03 and 0.01 mg/kg daily i.p. from onset, chronic phase (>24 days)) was “significantly reduced”. The “myelination of nerve axons in spinal cord (TEM)” value [3] was “healthy and well-myelinated”, the “% weight change in recovery phase” value ([4]; 0.1 mg/kg daily i.p. from day 28, cuprizone 35 days, vs vehicle or U-50488) was “enhances recovery of the lost weight faster” and the “% weight change (reversal of cuprizone weight loss)” value ([4]; 0.1 mg/kg daily i.p. from week 4, 0.3% cuprizone 5 weeks, vs vehicle (Example 7)) was “reversed significantly more effectively”. For the same compound, the “rotarod performance (coordination)” value [5] was “reversed”, the “myelin in corpus callosum (TEM, g-ratio)” value ([6]; 0.1 mg/kg daily i.p. from week 4, day 65 (Example 9)) was “more myelin was detected” and the “area of myelin staining per TEM image” value [6, 15] was “percentage increase in area of myelination”. For the same compound, the “mean g-ratio (corpus callosum)” value [6, 15] was 0.75±0.15, the “number of myelinated axons vs non-myelinated axons” value [6, 15] was “percentage increase in the number of myelinated axons” and the “lesion load and myelin density in ventral horn (luxol fast blue)” value ([7]; 0.01 mg/kg daily i.p. from onset, chronic phase (Example 25)) was “reduces this lesion load and demyelination”. The “% demyelination of spinal cord (luxol fast blue)” value ([7]; 0.03 or 0.01 mg/kg daily i.p. from onset, chronic phase) was “significant reduction”, the “proportion of major lymphocyte populations in spleen (CD4, CD8, B220; % live leukocytes)” value ([8]; 27 days post treatment initiation) was “do not alter” and the “Teff:cm ratio (effector to central memory CD4 T cells)” value ([8]; 27 days, vs vehicle) was “reduced ratio”. The “overall number of CD4 T cells in spleen” value ([8]; 27 days, vs vehicle) was “the same”, the “leucocyte infiltration score (0-3), H&E” value [9] was “reduction of infiltrating leucocytes” and the “number of activated GFAP+ astrocytes per section” value [10] was “significantly reduces”. For the same compound, the “mechanical withdrawal threshold (von Frey)” value ([11]; pre vs post treatment) was “reduced to baseline levels”, the “mechanical threshold scores (von Frey)” value ([11]; vs vehicle treated mice) was “improved mechanical threshold scores” and the “Complete Inhibition” value ([12]; IV, EMA/CHMP/138212/2014) was 7.5 to 10 µg/kg. The ED50 ([12]; IV, EMA/CHMP/138212/2014) was 3.77 µg/kg, the “Inhibition reached at the dose given under Complete Inhibition” value ([12]; PO, 100 μg/kg, EMA/CHMP/138212/2014) was “(66%)” and the “Complete Inhibition” value ([12]; PO, EMA/CHMP/138212/2014) was 100 µg/kg. The ED50 ([12]; PO, EMA/CHMP/138212/2014) was 9.61 µg/kg, the “Complete Inhibition” value ([12]; PO, Togashi et al. (2002)) was 100 µg/kg and the ED50 ([12]; PO, Togashi et al. (2002)) was 19.6 µg/kg. The “Complete Inhibition” value ([12]; SC, EMA/CHMP/138212/2014) was 10 µg/kg, the ED50 ([12]; SC, EMA/CHMP/138212/2014) was 1.65 µg/kg and the “Complete Inhibition” value (Morphine induced scratch) was 5 to 10 µg/kg. The ED50 (Morphine induced scratch) was 2.34 µg/kg, the “Complete Inhibition” value [13] was 30 to 100 µg/kg and the ED50 [13] was 7.3 µg/kg. The “effective dose in humans for itch” value (itch) was 2.5 μg/body/day, the Bioavailability ([14]; intravenous (IV)) was 100% and the Bioavailability ([14]; oral (PO) administration) was roughly 32%. For the same compound, the Bioavailability ([14]; subcutaneous (s.c.)) was 96%.
